Patent US10385063B2, “Herbicidal compounds” (Syngenta Participations AG, priority 2015, dated 2019)

Legend:
Assay in all cases: Post-emergence efficacy, glasshouse pot test
Type in all cases: in vivo
Conditions in all cases: evaluated after 13 days
[1] = tested on: Ipomoea hederacea (IPOHE)
Method: (§1) B1 Post-emergence Efficacy Seeds of a variety of test species are sown in standard soil in pots:— Solanum nigrum (SOLNI), Amaranthus retoflexus (AMARE), Setaria faberi (SETFA), Echinochloa crus-galli (ECHCG), Ipomoea hederacea (IPOHE), Lolium perenne (LOLPE). After 8 days cultivation (post-emergence) under controlled conditions in a glasshouse (at 24/16° C., day/night; 14 hours light; 65% humidity), the plants are sprayed with an aqueous spray solution derived from the formulation of the technical active ingredient in acetone/water (50:50) solution containing 0.5% Tween 20 (polyoxyethylene sorbitan monolaurate, CAS RN 9005-64-5). Compounds are applied at 1000 g/ha and 250 g/ha. The test plants are then grown in a glasshouse under controlled conditions in a glasshouse (at 24/16° C., day/night; 14 hours light; 65% humidity) and watered twice daily. After 13 days, the test is evaluated for the percentage damage caused to the plant. The biological activities are shown below in Table B1, on a five point scale (5=80-100%; 4=60-79%; 3=40-59%; 2=20-39%; 1=0-19%).

Lolium perenne (LOLPE) = tested on: Lolium perenne (LOLPE)
Method: as §1

[2] = tested on: Amaranthus retoflexus (AMARE)
Method: as §1

Setaria faberi (SETFA) = tested on: Setaria faberi (SETFA)
Method: as §1

Solanum nigrum (SOLNI) = tested on: Solanum nigrum (SOLNI)
Method: as §1

[3] = tested on: Echinochloa crus-galli (ECHCG)
Method: as §1

CC1(C)C(=O)C(c2c(Cl)ccc(Cl)c2OCc2ccccc2)C(=O)c2nccnc21 (stereo not drawn) [Compound 1.01, 7-(2-benzyloxy-3,6-dichloro-phenyl)-8-hydroxy-5,5-dimethyl-quinoxalin-6-one]
percentage damage caused to the plant, IPOHE (five point scale) ([1]; 250 g/Ha): 5 (5=80-100%) | percentage damage caused to the plant, IPOHE (five point scale) ([1]; 1000 g/Ha): 5 (5=80-100%) | percentage damage caused to the plant, LOLPE (five point scale) (Lolium perenne (LOLPE); 250 g/Ha): 5 (5=80-100%) | percentage damage caused to the plant, LOLPE (five point scale) (Lolium perenne (LOLPE); 1000 g/Ha): 5 (5=80-100%) | percentage damage caused to the plant, AMARE (five point scale) ([2]; 250 g/Ha): 5 (5=80-100%) | percentage damage caused to the plant, AMARE (five point scale) ([2]; 1000 g/Ha): 5 (5=80-100%) | percentage damage caused to the plant, SETFA (five point scale) (Setaria faberi (SETFA); 250 g/Ha): 5 (5=80-100%) | percentage damage caused to the plant, SETFA (five point scale) (Setaria faberi (SETFA); 1000 g/Ha): 5 (5=80-100%) | percentage damage caused to the plant, SOLNI (five point scale) (Solanum nigrum (SOLNI); 250 g/Ha): 5 (5=80-100%) | percentage damage caused to the plant, SOLNI (five point scale) (Solanum nigrum (SOLNI); 1000 g/Ha): 5 (5=80-100%) | percentage damage caused to the plant, ECHCG (five point scale) ([3]; 250 g/Ha): 5 (5=80-100%) | percentage damage caused to the plant, ECHCG (five point scale) ([3]; 1000 g/Ha): 5 (5=80-100%)

CC1(C)C(=O)C(c2c(F)ccc(Cl)c2OCc2ccccc2)C(=O)c2nccnc21 (stereo not drawn) [Compound 1.02]
percentage damage caused to the plant, IPOHE (five point scale) ([1]; 250 g/Ha): 5 (5=80-100%) | percentage damage caused to the plant, IPOHE (five point scale) ([1]; 1000 g/Ha): 5 (5=80-100%) | percentage damage caused to the plant, LOLPE (five point scale) (Lolium perenne (LOLPE); 250 g/Ha): 5 (5=80-100%) | percentage damage caused to the plant, LOLPE (five point scale) (Lolium perenne (LOLPE); 1000 g/Ha): 5 (5=80-100%) | percentage damage caused to the plant, AMARE (five point scale) ([2]; 250 g/Ha): 5 (5=80-100%) | percentage damage caused to the plant, AMARE (five point scale) ([2]; 1000 g/Ha): 5 (5=80-100%) | percentage damage caused to the plant, SETFA (five point scale) (Setaria faberi (SETFA); 250 g/Ha): 5 (5=80-100%) | percentage damage caused to the plant, SETFA (five point scale) (Setaria faberi (SETFA); 1000 g/Ha): 5 (5=80-100%) | percentage damage caused to the plant, SOLNI (five point scale) (Solanum nigrum (SOLNI); 250 g/Ha): 5 (5=80-100%) | percentage damage caused to the plant, SOLNI (five point scale) (Solanum nigrum (SOLNI); 1000 g/Ha): 5 (5=80-100%) | percentage damage caused to the plant, ECHCG (five point scale) ([3]; 250 g/Ha): 5 (5=80-100%) | percentage damage caused to the plant, ECHCG (five point scale) ([3]; 1000 g/Ha): 5 (5=80-100%)

CC1(C)c2nccnc2C(=O)C(c2c(F)ccc(Cl)c2OCc2ccccc2)S1(=O)=O (stereo not drawn) [Compound 1.08, 7-(2-benzyloxy-3-chloro-6-fluoro-phenyl)-5,5-dimethyl-6,6-dioxo-thiopyrano[3,4-b]pyrazin-8-ol]
percentage damage caused to the plant, IPOHE (five point scale) ([1]; 250 g/Ha): 5 (5=80-100%) | percentage damage caused to the plant, IPOHE (five point scale) ([1]; 1000 g/Ha): 5 (5=80-100%) | percentage damage caused to the plant, LOLPE (five point scale) (Lolium perenne (LOLPE); 250 g/Ha): 5 (5=80-100%) | percentage damage caused to the plant, LOLPE (five point scale) (Lolium perenne (LOLPE); 1000 g/Ha): 5 (5=80-100%) | percentage damage caused to the plant, AMARE (five point scale) ([2]; 250 g/Ha): 5 (5=80-100%) | percentage damage caused to the plant, AMARE (five point scale) ([2]; 1000 g/Ha): 5 (5=80-100%) | percentage damage caused to the plant, SETFA (five point scale) (Setaria faberi (SETFA); 250 g/Ha): 5 (5=80-100%) | percentage damage caused to the plant, SETFA (five point scale) (Setaria faberi (SETFA); 1000 g/Ha): 5 (5=80-100%) | percentage damage caused to the plant, SOLNI (five point scale) (Solanum nigrum (SOLNI); 250 g/Ha): 5 (5=80-100%) | percentage damage caused to the plant, SOLNI (five point scale) (Solanum nigrum (SOLNI); 1000 g/Ha): 5 (5=80-100%) | percentage damage caused to the plant, ECHCG (five point scale) ([3]; 250 g/Ha): 4 (4=60-79%) | percentage damage caused to the plant, ECHCG (five point scale) ([3]; 1000 g/Ha): 5 (5=80-100%)

O=C1c2nccnc2CS(=O)(=O)C1c1c(Cl)ccc(Cl)c1OCc1ccccc1 (stereo not drawn) [Compound 1.13]
percentage damage caused to the plant, IPOHE (five point scale) ([1]; 250 g/Ha): 5 (5=80-100%) | percentage damage caused to the plant, IPOHE (five point scale) ([1]; 1000 g/Ha): 5 (5=80-100%) | percentage damage caused to the plant, LOLPE (five point scale) (Lolium perenne (LOLPE); 250 g/Ha): 5 (5=80-100%) | percentage damage caused to the plant, LOLPE (five point scale) (Lolium perenne (LOLPE); 1000 g/Ha): 5 (5=80-100%) | percentage damage caused to the plant, AMARE (five point scale) ([2]; 250 g/Ha): 5 (5=80-100%) | percentage damage caused to the plant, AMARE (five point scale) ([2]; 1000 g/Ha): 5 (5=80-100%) | percentage damage caused to the plant, SETFA (five point scale) (Setaria faberi (SETFA); 250 g/Ha): 5 (5=80-100%) | percentage damage caused to the plant, SETFA (five point scale) (Setaria faberi (SETFA); 1000 g/Ha): 5 (5=80-100%) | percentage damage caused to the plant, SOLNI (five point scale) (Solanum nigrum (SOLNI); 250 g/Ha): 5 (5=80-100%) | percentage damage caused to the plant, SOLNI (five point scale) (Solanum nigrum (SOLNI); 1000 g/Ha): 5 (5=80-100%) | percentage damage caused to the plant, ECHCG (five point scale) ([3]; 250 g/Ha): 5 (5=80-100%) | percentage damage caused to the plant, ECHCG (five point scale) ([3]; 1000 g/Ha): 5 (5=80-100%)
